Measured values from publication PMC11477141, “Chemokine Receptor N-Terminus Charge Dictates Reliance on Post-Translational Modifications for Effective Ligand Capture and Following Boosting by Defense Peptides” (International Journal of Molecular Sciences, 2024).
Where no end group is shown, it is not given here.

Key:
CCR5-1like = assay: BRET CAMYEL Gαi signaling via chimeric receptor M1-CCR5-1like; format: cell-based, human; details: n = 3
From the text: To finally determine if the lack of acidic amino acids in the CCR5 N-terminus can explain the dependency of this receptor on O-glycosylation for effective ligand interaction, we constructed a CCR5 receptor chimera, where the most acidic N-terminal region of CCR1 was inserted into the CCR5 N-terminus, creating the chimeric receptor CCR5-1like (Figure 7).
Figure 7 Receptor N-termini representing CCR1, CCR5, and the chimeric CCR5-1like. The CCR1 N-terminus contains a lot of acidic amino acids (outlined in red) in the form of aspartic acid (D) and glutamic acid (E), whereas CCR5 only contains a few. The chimeric receptor CCR5-1like that contains part of the CCR1 receptor N-terminus (ETTTDYDE) resembles CCR1 with regard to acidic amino acid content and spacing, but they are not the same.
BRET measurements of Gαi signaling and β-arrestin recruitment: Cells were seeded in 6-well plates (500,000 cells/well) and transiently transfected the following day. For BRET measurements of Gαi signaling, cells were transfected with vectors encoding the human chemokine receptors as indicated (160 ng/well) and the CAMYEL sensor (cAMP sensor, YFP-Epac-RLuc) (840 ng/well) using Lipofectamine (6 µL/well). Briefly, DNA was dissolved in 125 µL OPTI-MEM and Lipofectamine was dissolved in 125 µL OPTI-MEM. The DNA and Lipofectamine solutions were combined into a transfection mixture. The transfection mixture was added dropwise to cells incubated in OPTI-MEM (1 mL/well). Transfections were terminated after 5 h by adding 1 mL of fresh culture medium on top of the OPTI-MEM. The following day the cells were loosened from the plates in PBS with 5 mM glucose and subsequently aliquoted in white 96-well iso plates (~25,000 cells/well). When using C21TP variants and defense peptides (hBD2 and histatin), these were added to a final concentration of 10 μM/well, while an equal amount of PBS was added to control cells. The bioluminescence substrate coelenterazine was added to a final conc. of 5 µM. After 10 min, varying ligand concentrations were added. For BRET measurements of Gαi signaling, forskolin was added 5 min after the addition of the ligand, to a final conc. of 5 µM. The plates were kept in the dark at all times. A Perkin Elmer Envision machine was used for measuring the emission signals at 530 and 480 nm. The BRET signal is determined as the ratio eYFP (530 nm)/Rluc (480 nm).
BRET principle with CAMYEL: For quantification of signaling initiated immediately downstream of receptor activation, we used the cAMP binding CAMYEL sensor to perform bioluminescence resonance energy transfer (BRET) based assays. In this assay we measure changes in intracellular cAMP levels in response to receptor activation. Activation of chemokine receptors lead to a decrease in cAMP through inhibition of adenylate cyclase (AC). In the current setup we initially add forskolin that stimulates AC directly to induce an increase in intracellular cAMP, and we then measure the ability of a ligand (chemokine) to counteract the forskolin-induced increase in cAMP. The cAMP sensor (CAMYEL cAMP sensor, YFP-Epac-RLuc) carries the donor Renilla luciferase (Rluc) and the acceptor YFP. Coelenterazine is a substrate for Rluc that will emit light at around 475 nm upon enzymatic cleavage catalyzed by Rluc. When Rluc and YFP are in close proximity, the energy from the emitted light from coelenterazine can be transferred to YFP, resulting in an excitation of YFP, leading to a BRET signal around 525 nm. […]

S6S7T16S17AAAA-CCR5 = assay: BRET CAMYEL Gαi signaling via S6S7T16S17AAAA-CCR5; format: cell-based, human; details: CHO cells, n = 3
Experimental: BRET measurements of Gαi signaling and β-arrestin recruitment: Cells were seeded in 6-well plates (500,000 cells/well) and transiently transfected the following day. For BRET measurements of Gαi signaling, cells were transfected with vectors encoding the human chemokine receptors as indicated (160 ng/well) and the CAMYEL sensor (cAMP sensor, YFP-Epac-RLuc) (840 ng/well) using Lipofectamine (6 µL/well). Briefly, DNA was dissolved in 125 µL OPTI-MEM and Lipofectamine was dissolved in 125 µL OPTI-MEM. The DNA and Lipofectamine solutions were combined into a transfection mixture. The transfection mixture was added dropwise to cells incubated in OPTI-MEM (1 mL/well). Transfections were terminated after 5 h by adding 1 mL of fresh culture medium on top of the OPTI-MEM. The following day the cells were loosened from the plates in PBS with 5 mM glucose and subsequently aliquoted in white 96-well iso plates (~25,000 cells/well). […] The BRET signal is determined as the ratio eYFP (530 nm)/Rluc (480 nm).
BRET principle with CAMYEL: For quantification of signaling initiated immediately downstream of receptor activation, we used the cAMP binding CAMYEL sensor to perform bioluminescence resonance energy transfer (BRET) based assays. […] The BRET ratio is determined as the ratio between YFP/Rluc, and an increase in BRET ratio indicates a decrease in cAMP and thus increased chemokine receptor activation. […]

[1] = HEK293 WT, DeltaSia and sC cells, 10 µM peptide

Substance	boosting of CCL3 signaling via M1-CCR5-1like (CCR5-1like; [1])	boosting of CCL8 signaling via M1-CCR5-1like (CCR5-1like; [1])	boosting of CCL5 signaling via S6S7T16S17AAAA receptor variant (S6S7T16S17AAAA-CCR5; 10 µM peptide)	Gαi signaling via M1-CCR5-1like in DeltaSia and sC cells compared to WT cells (CCR5-1like; HEK293 DeltaSia and sC)	Gαi signaling via S6S7T16S17AAAA-CCR5 compared to WT-CCR5 (S6S7T16S17AAAA-CCR5)
RKDRGASKTGKKGKGSKGCKRTERSQTPKGP [C21TP^81-111]	absent	absent	not in S6S7T16S17AAAA		
CCL5: human chemokine from Peprotech, overall basic				persists in DeltaSia and sC to almost the same high level as observed in WT cells	completely abolished
